Legend:
[1] = tested on: Echinochloa crus-galli (ECHCG); test: Example B post-emergence herbicidal activity, glasshouse pot test; format: in vivo; conditions: 312 h, rate 1000 g/ha, evaluated after 13 days, read-out: herbicidal damage ECHCG (100=total damage to plant; 0=no damage to plant)
Experimental: (§1) Seeds of a variety of test species were sown in standard soil in pots. After cultivation for one day (pre-emergence) or after 8 days cultivation (post-emergence) under controlled conditions in a glasshouse (at 24/16° C., day/night; 14 hours light; 65% humidity), the plants were sprayed with an aqueous spray solution derived from the formulation of the technical active ingredient in acetone/water (50:50) solution containing 0.5% Tween 20 (polyoxyethelyene sorbitan monolaurate, CAS RN 9005-64-5). The test plants were then grown in a glasshouse under controlled conditions in a glasshouse (at 24/16° C., day/night; 14 hours light; 65% humidity) and watered twice daily. After 13 days for pre and post-emergence, the test was evaluated (100=total damage to plant; 0=no damage to plant). Alopecurus myosuroides (ALOMY), Avena fatua (AVEFA), Setaria faberi (SETFA), Echinochloa crus-galli (ECHCG), Solanum nigrum (SOLNI) and Amaranthus retroflexus (AMARE) Post-Emergence Activity

Solanum nigrum (SOLNI) [2] = test: as above; format: in vivo; conditions: 312 h, rate 1000 g/ha, evaluated after 13 days, read-out: herbicidal damage SOLNI (100=total damage to plant; 0=no damage to plant)
Experimental: as §1

[3] = tested on: Amaranthus retroflexus (AMARE); test: as above; format: in vivo; conditions: 312 h, rate 1000 g/ha, evaluated after 13 days, read-out: herbicidal damage AMARE (100=total damage to plant; 0=no damage to plant)
Experimental: as §1

[4] = tested on: Alopecurus myosuroides (ALOMY); test: as above; format: in vivo; conditions: 312 h, rate 1000 g/ha, evaluated after 13 days, read-out: herbicidal damage ALOMY (100=total damage to plant; 0=no damage to plant)
Experimental: as §1

Avena fatua (AVEFA) [5] = test: as above; format: in vivo; conditions: 312 h, rate 1000 g/ha, evaluated after 13 days, read-out: herbicidal damage AVEFA (100=total damage to plant; 0=no damage to plant)
Experimental: as §1

Setaria faberi (SETFA) [6] = test: as above; format: in vivo; conditions: 312 h, rate 1000 g/ha, evaluated after 13 days, read-out: herbicidal damage SETFA (100=total damage to plant; 0=no damage to plant)
Experimental: as §1

[7] = tested on: Echinochloa crus-galli (ECHCG); test: Example A post-emergence herbicidal activity, glasshouse pot test; format: in vivo; conditions: 360 h, evaluated 15 days after spraying, read-out: herbicidal damage ECHCG (100=total damage to plant; 0=no damage to plant); for pest or weed control at 500 g/ha: rate 500 g/ha
Experimental: (§2) Seeds of a variety of test species were sown in standard soil in pots. After cultivation for one day (pre-emergence) or after 10 days cultivation (post-emergence) under controlled conditions in a glasshouse, the plants were sprayed with an aqueous spray solution derived from the formulation of the technical active ingredient in 0.6 ml acetone and 45 ml formulation solution containing 10.6% Emulsogen EL (Registry number 61791-12-6), 42.2% N-methylpyrrolidone, 42.2% dipropylene glycol monomethyl ether (Registry number 34590-94-8) and 0.2% X-77 (Registry number 11097-66-8). The test plants were then grown in a greenhouse under optimum conditions until, 15 days later for post-emergence and 20 days for pre-emergence, the test was evaluated (100=total damage to plant; 0=no damage to plant). Alopecurus myosuroides (ALOMY), Avena fatua (AVEFA), Lolium perenne (LOLPE), Setaria faberi (SETFA), Digitaria sanguinalis (DIGSA), Echinochloa crus-galli (ECHCG) Post Emergency Activity

[8] = tested on: Digitaria sanguinalis (DIGSA); test: as above; format: in vivo; conditions: 360 h, evaluated 15 days after spraying, read-out: herbicidal damage DIGSA (100=total damage to plant; 0=no damage to plant); for pest or weed control at 500 g/ha: rate 500 g/ha
Experimental: as §2

[9] = tested on: Alopecurus myosuroides (ALOMY); test: as above; format: in vivo; conditions: 360 h, evaluated 15 days after spraying, read-out: herbicidal damage ALOMY (100=total damage to plant; 0=no damage to plant); for pest or weed control at 500 g/ha: rate 500 g/ha
Experimental: as §2

Lolium perenne (LOLPE) [10] = test: as above; format: in vivo; conditions: 360 h, evaluated 15 days after spraying, read-out: herbicidal damage LOLPE (100=total damage to plant; 0=no damage to plant); for pest or weed control at 500 g/ha: rate 500 g/ha
Experimental: as §2

Avena fatua (AVEFA) [11] = test: as above; format: in vivo; conditions: 360 h, evaluated 15 days after spraying, read-out: herbicidal damage AVEFA (100=total damage to plant; 0=no damage to plant); for pest or weed control at 500 g/ha: rate 500 g/ha
Experimental: as §2

Setaria faberi (SETFA) [12] = test: as above; format: in vivo; conditions: 360 h, evaluated 15 days after spraying, read-out: herbicidal damage SETFA (100=total damage to plant; 0=no damage to plant); for pest or weed control at 500 g/ha: rate 500 g/ha
Experimental: as §2

[13] = tested on: Echinochloa crus-galli (ECHCG); test: Example B pre-emergence herbicidal activity, glasshouse pot test; format: in vivo; conditions: 312 h, rate 1000 g/ha, evaluated after 13 days, read-out: herbicidal damage ECHCG (100=total damage to plant; 0=no damage to plant)
Experimental: as §1, with “Pre-Emergence” for “Post-Emergence”

Solanum nigrum (SOLNI) [14] = test: as above; format: in vivo; conditions: 312 h, rate 1000 g/ha, evaluated after 13 days, read-out: herbicidal damage SOLNI (100=total damage to plant; 0=no damage to plant)
Experimental: as §1, with “Pre-Emergence” for “Post-Emergence”

[15] = tested on: Amaranthus retroflexus (AMARE); test: as above; format: in vivo; conditions: 312 h, rate 1000 g/ha, evaluated after 13 days, read-out: herbicidal damage AMARE (100=total damage to plant; 0=no damage to plant)
Experimental: as §1, with “Pre-Emergence” for “Post-Emergence”

[16] = tested on: Alopecurus myosuroides (ALOMY); test: as above; format: in vivo; conditions: 312 h, rate 1000 g/ha, evaluated after 13 days, read-out: herbicidal damage ALOMY (100=total damage to plant; 0=no damage to plant)
Experimental: as §1, with “Pre-Emergence” for “Post-Emergence”

Avena fatua (AVEFA) [17] = test: as above; format: in vivo; conditions: 312 h, rate 1000 g/ha, evaluated after 13 days, read-out: herbicidal damage AVEFA (100=total damage to plant; 0=no damage to plant)
Experimental: as §1, with “Pre-Emergence” for “Post-Emergence”

Setaria faberi (SETFA) [18] = test: as above; format: in vivo; conditions: 312 h, rate 1000 g/ha, evaluated after 13 days, read-out: herbicidal damage SETFA (100=total damage to plant; 0=no damage to plant)
Experimental: as §1, with “Pre-Emergence” for “Post-Emergence”

[19] = tested on: Echinochloa crus-galli (ECHCG); test: Example A pre-emergence herbicidal activity, glasshouse pot test; format: in vivo; conditions: 480 h, rate 500 g/ha, evaluated 20 days later, 100=total damage to plant, 0=no damage to plant
Experimental: as §2, with “Pre-Emergence” for “Post Emergency”

[20] = tested on: Digitaria sanguinalis (DIGSA); test: as above; format: in vivo; conditions: 480 h, rate 500 g/ha, evaluated 20 days later, 100=total damage to plant, 0=no damage to plant
Experimental: as §2, with “Pre-Emergence” for “Post Emergency”

[21] = tested on: Alopecurus myosuroides (ALOMY); test: as above; format: in vivo; conditions: 480 h, rate 500 g/ha, evaluated 20 days later, 100=total damage to plant, 0=no damage to plant
Experimental: as §2, with “Pre-Emergence” for “Post Emergency”

Lolium perenne (LOLPE) [22] = test: as above; format: in vivo; conditions: 480 h, rate 500 g/ha, evaluated 20 days later, 100=total damage to plant, 0=no damage to plant
Experimental: as §2, with “Pre-Emergence” for “Post Emergency”

Avena fatua (AVEFA) [23] = test: as above; format: in vivo; conditions: 480 h, rate 500 g/ha, evaluated 20 days later, 100=total damage to plant, 0=no damage to plant
Experimental: as §2, with “Pre-Emergence” for “Post Emergency”

Setaria faberi (SETFA) [24] = test: as above; format: in vivo; conditions: 480 h, rate 500 g/ha, evaluated 20 days later, 100=total damage to plant, 0=no damage to plant
Experimental: as §2, with “Pre-Emergence” for “Post Emergency”

Row | melting point | Structure (SMILES) | pest or weed control at 500 g/ha [19] | pest or weed control at 500 g/ha [20] | pest or weed control at 500 g/ha [21] | pest or weed control at 500 g/ha (Lolium perenne (LOLPE) [22]) | pest or weed control at 500 g/ha (Avena fatua (AVEFA) [23]) | pest or weed control at 500 g/ha (Setaria faberi (SETFA) [24]) | pest or weed control at 500 g/ha [7] | pest or weed control at 500 g/ha [8] | pest or weed control at 500 g/ha [9] | pest or weed control at 500 g/ha (Lolium perenne (LOLPE) [10]) | pest or weed control at 500 g/ha (Avena fatua (AVEFA) [11]) | pest or weed control at 500 g/ha (Setaria faberi (SETFA) [12]) | also measured
1 | – | CCc1ccccc1C1=C(O)CC(CC2CCOCC2)CC1=O (centres unmarked) [Compound A-31] | 70% | 100% | 60% | 40% | 50% | 100% | – | – | – | – | – | – | pest or weed control at 1000 g/ha [1]: 100%; pest or weed control at 1000 g/ha (Solanum nigrum (SOLNI) [2]): 0%; pest or weed control at 1000 g/ha [3]: 0%; pest or weed control at 1000 g/ha [4]: 100%; pest or weed control at 1000 g/ha (Avena fatua (AVEFA) [5]): 90%; pest or weed control at 1000 g/ha (Setaria faberi (SETFA) [6]): 100%; pest or weed control at 125 g/ha ([7]; rate 125 g/ha): 50%; pest or weed control at 125 g/ha ([8]; rate 125 g/ha): 30%; pest or weed control at 125 g/ha ([9]; rate 125 g/ha): 60%; pest or weed control at 125 g/ha (Lolium perenne (LOLPE) [10]; rate 125 g/ha): 60%; pest or weed control at 125 g/ha (Avena fatua (AVEFA) [11]; rate 125 g/ha): 60%; pest or weed control at 125 g/ha (Setaria faberi (SETFA) [12]; rate 125 g/ha): 40%; pest or weed control at 1000 g/ha [13]: 100%; pest or weed control at 1000 g/ha (Solanum nigrum (SOLNI) [14]): 0%; pest or weed control at 1000 g/ha [15]: 0%; pest or weed control at 1000 g/ha [16]: 100%; pest or weed control at 1000 g/ha (Avena fatua (AVEFA) [17]): 40%; pest or weed control at 1000 g/ha (Setaria faberi (SETFA) [18]): 100%
2 | 62 to 64 °C | Cc1cc(C)c(C2=C(O)CC(CC3CCOC3)CC2=O)c(C)c1 (centres unmarked) [Compound A-1, 2-(2,4,6-trimethylphenyl)-5-(tetrahydrofuran-3-ylmethyl)cyclohexane-1,3-dione] | 50% | 100% | 70% | 80% | 40% | 90% | 90% | 100% | 70% | 70% | 80% | 100% | –
3 | 108 to 110 °C | Cc1cc(C)c(C2=C(OC(=O)C(C)(C)C)CC(CC3CCOC3)CC2=O)c(C)c1 (centres unmarked) [Compound B-1, 2,2-dimethylpropionic acid 3-oxo-5-(tetrahydrofuran-3-ylmethyl)-2-(2,4,6-trimethylphenyl)cyclohex-1-enyl Ester] | 100% | 100% | 90% | 90% | 50% | 80% | 70% | 90% | 50% | 60% | 0% | 80% | –
